Laboratory results from the NIST ThermoML archive (doi:10.1016/j.fluid.2017.06.024).

Experiment: molar heat capacity at constant pressure
Conditions: 100 kPa, Liquid, DSC

CC(C)OC(C)C [diisopropyl ether]
Conditions	molar heat capacity at constant pressure [J/K/mol]
290.5 K	210.58
295.44 K	212.42
300.38 K	214.46
305.32 K	216.51
310.26 K	218.55
315.19 K	220.6
320.13 K	222.64
325.07 K	224.68
330.01 K	226.93
334.95 K	229.08
339.89 K	231.22
